Test results taken from patent US6489157B1, “Medium for cultivating microorganisms” (priority 1999, dated 2002).

Columns and labels:
isolate of CHL004 = assay: Use as phosphate source for growth; type: cell-based, Pseudomonas aeruginosa
Source text: In Wanner (16), it is noted that organophosphates can be directly transported to the cytoplasm of E. coli and S. typhimurium, or they can be hydrolyzed in the periplasm by phosphatases, after which the phosphate is transported to the cytoplasm.

[1] = Solubility of Pb(NO3)2 in BPTN, ICAP trace metal analysis before and after 0.2 micrometer filtering; type: physicochemical; conditions: n=4
P. aeruginosa CHL004 = assay: Growth in medium with Pb(NO3)2; type: cell-based, Pseudomonas aeruginosa; conditions: Pb(NO3)2 increased from zero to 1 mM in BPTN
Procedure: All cultures were grown at 29° C. in a water bath incubator with shaking at a speed of 200 rpm. The cultures were inoculated with a saturated overnight culture in BPTN. Overnight cultures (˜18 hours) were prepared from −80° C. freezer stocks. Data were typically obtained after approximately three or more doublings, and only data between an optical density at 650 nm (OD650) of 0.1 and half the saturation cell density were used for analysis.
Growth rate and saturation cell density studies. The OD650 was measured using a Perkin Elmer Lambda 2 UV/VIS spectrometer. The cell path length was 10 mm. Duplicate 100 μL aliquots were taken from growing cultures and diluted with 900 microliters of a solution having a minimum concentration of 62 mM NaNO3. The same diluent was used within a given growth rate curve. Sixty two mM NaNO3 was determined to be isosmotic with BPTN. Osmolalities were determined using a Precision Instruments microOsmette freezing point depression osmometer calibrated at 0, 100, and 500 mOsm.
Growth in medium with Pb(NO3)2. […] The variances from the growth rate curve fittings for BPTN+1 mM Pb(NO3) 2 are typically equal to or smaller than those for BPTN. […] A linear relationship between CFU/mL and OD650 is expected if the extent of scattering is proportional to the cell density in the cell slurry. […]

Structure (SMILES) | use as a phosphate source (isolate of CHL004) | Pb^2+ concentration after filtering ([1]; 0.2 micrometer PES syringe filter) [mM] | Pb^2+ concentration before filtering [1] [mM] | change of growth rate constant of CHL004 with Pb(NO3)2 concentration (P. aeruginosa CHL004)
N[C@@H](COP(=O)(O)O)C(=O)O [O-Phospho-L-serine] | can be used as a phosphate source | – | – | –
O=[N+]([O-])[O-].O=[N+]([O-])[O-].[Pb+2] [Pb(NO3)2] | – | 25.1 ± 1.3 | 24.0 ± 0.6 | decreases
